The source made the active and inactive calls. The rule behind the calls is not given here.
Legend:
[1] = Growth inhibition of human HL60 cells at 0.1 uM after 48 hrs by MTT assay; type: functional; details: HL-60, 48 h, read-out: GI
HL-60 [2] = experiment: Induction of cell differentiation of human HL60 cells at 0.1 uM after 72 hrs by NBT dye based assay; type: functional
HL-60 [3] = experiment: Induction of CYP26A1 expression in human HL60 cells at 0.1 uM after 72 hrs; type: functional, cell-based
Cytochrome P450 26A1 = molecular target: T1, Cytochrome P450 26A1 (Homo sapiens, UniProt O43174); experiment: Inhibition of CYP26A1 in ATRA-induced human HL60 cell microsomes incubated for 30 mins using ATRA and NADPH by HPLC method; type: cell-based, HL-60
T1 sequence (O43174 whole entry): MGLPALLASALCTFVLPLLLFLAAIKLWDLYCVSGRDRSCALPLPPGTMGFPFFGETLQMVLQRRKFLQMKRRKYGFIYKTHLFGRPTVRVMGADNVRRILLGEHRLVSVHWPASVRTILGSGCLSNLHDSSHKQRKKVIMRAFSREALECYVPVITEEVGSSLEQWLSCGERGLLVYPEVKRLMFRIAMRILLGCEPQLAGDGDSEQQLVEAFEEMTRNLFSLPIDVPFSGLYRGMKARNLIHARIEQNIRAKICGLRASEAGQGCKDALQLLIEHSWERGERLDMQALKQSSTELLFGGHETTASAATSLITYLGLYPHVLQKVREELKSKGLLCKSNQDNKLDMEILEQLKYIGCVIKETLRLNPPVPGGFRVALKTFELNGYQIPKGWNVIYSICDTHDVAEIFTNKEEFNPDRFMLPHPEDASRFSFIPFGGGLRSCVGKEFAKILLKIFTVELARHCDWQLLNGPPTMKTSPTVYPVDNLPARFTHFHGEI

[4] = Growth inhibition of human HL60 cells at 10 uM after 48 hrs by MTT assay; type: functional; details: HL-60, 48 h, read-out: GI
[5] = Growth inhibition of human HL60 cells at 10 uM in presence of 0.1 uM ATRA after 48 hrs by MTT assay; type: functional, HL-60
HL-60 [6] = experiment: Induction of cell differentiation of human HL60 cells at 10 uM after 72 hrs by NBT dye based assay; type: functional
HL-60 [7] = experiment: Induction of cell differentiation of human HL60 cells at 10 uM in presence of 0.1 uM ATRA after 72 hrs by NBT dye based assay; type: functional

SMILES | inhibition of growth at 0.1 µM [1] | Activity (HL-60 [2]) | Activity (HL-60 [3]) | IC50 (Cytochrome P450 26A1) | inhibition of growth at 10 µM [4] | growth inhibition (GI) [5] | Activity (HL-60 [6]) | Activity (HL-60 [7])
CC1=C(/C=C/C(C)=C/C=C/C(C)=C/C(=O)O)C(C)(C)CCC1 [TRETINOIN] | 23.8% | 26.07% | Active |  |  |  |  | 
Cc1cc(C(=O)NC(CC(=O)O)c2ccc(Cl)cc2)c(C)o1 (configuration not stated) |  |  |  | 2730 nM | 10.3% | 49.53% | 0% | 46.61%
Cc1ccc(C(CC(=O)O)NC(=O)c2cc(C)oc2C)cc1 (configuration not stated) |  |  |  | 3090 nM | 5.85% | 44.85% | 0% | 42.62%
Cc1nn(-c2ccccc2)c(Cl)c1C(=O)NC(CC(=O)O)c1cccc(Br)c1 (configuration not stated) |  |  |  | 1870 nM | 6.16% | 56.15% | 0% | 48.51%
Clc1cccc(C(c2ccc3[nH]cnc3c2)n2ccnc2)c1 (configuration not stated) [LIAROZOLE] |  |  |  |  | 15.4% | 48.26% | 0% | 46.71%

Reference: ChEMBL document CHEMBL3397030, “Synthesis and biological evaluation of 3-phenyl-3-aryl carboxamido propanoic acid derivatives as small molecule inhibitors of retinoic acid 4-hydroxylase (CYP26A1)” (Bioorg Med Chem, 2015)
